The values that follow come from patent publication US8883228B2, “Composition for heart disease, its active ingredients, method to prepare same and uses thereof” (Tasly Pharmaceutical Group Co. Ltd., priority 2003, dated 2014).

The subject of series [1] is chronic pulmonary heart disease. Description: Healing effect on chronic pulmonary heart disease. Format: in vivo, human. The note with it: treatment group versus control group. The text has this: The total efficacy rate of treatment group is 95% and that of the control group 76%, the difference of which is statistically significant (P[…]0.05). […] There was a significant difference in the efficacy of the two groups (X^2=4.46 and 4.95, P[…]0.05). […] There were obvious changes in blood flow in the Treatment group before and after treatment compared with that of the Control group (P[…]0.05). The blood viscosity of the control group decreased after treatment, but there was no statistical deviation.

Series [2] relates to angina caused by coronary heart disease. Description: Senior group angina, comparative analysis of DSP and Nifedipine. In kind it is in vivo, human. The note with it: treatment of angina caused by coronary heart disease. The protocol:
Both DSP and Nifedipine can treat angina caused by coronary heart disease, but the latter has side effects which are not suitable for long-term use. In order to choose suitable drugs for patients with a need for long-term treatment of coronary heart disease, a comparative analysis of DSP and Nifedipine in the treatment of angina caused by coronary heart disease was carried out. DSP is made for angina. It activates blood circulation and relieves pain efficiently. […] Nifedipine is a short-term-effective calcium antagonist with a short half-life and functional time, so angina may occur during medication. […] Many reports state that long-term treatment with Nifedipine is harmful to coronary arteries. DSP can prevent decreased blood flow to the cardiac muscles and the development of atherosclerosis.

The test system of series [3] is Wistar rat's artificial heart. As to the kind of experiment: Cardiac arrhythmia caused by exogenous free radicals, Langendorff perfusion. The settings on record: 1 mg/L; ferrous sulfate/citrate free radicals alone up to 100%. The text has this: Langendorff perfusion device was used to pour ferrous sulfate (0.25 mmol/L)/citrate (1.0 mmol/L) into the Wistar rat's artificial heart. The model of free radicals causing heart rhythm irregularity was replicated to observe the effects of DSP.

The subject of a further series is vegetative nerve balance. Description: Adjustment of vegetative nerve, heart rate variation (HRV). Format: in vivo, human. The settings on record: before and after treatment. The text has this:
This test uses “Wenger-Chongzhongchongxion” vegetative nerve balance factor analysis to test the heart rate variation (HRV), that is, the fluctuation in the average heartbeat over a certain period of time or over a long time period in the R-R period. Data, including effects on the sympathetic and para-sympathetic nerves can be calculated, to reflect the regulatory function of the vegetative nervous system. […] A decrease in HRV means the sympathetic nerve is excited. It is directly proportional to the symptoms in coronary heart disease and the possibility of sudden death and irregularity of heartbeat. DSP can control over-excitement of the […] nerve and regulate the balance in the vegetative nerve.

Structures are written as SMILES.

In turn, `OCCN(CCO)c1nc(N2CCCCC2)c2nc(N(CCO)CCO)nc(N3CCCCC3)c2n1` [persantin] gave a total efficacy rate in series [1] of 76%.

In the case of `COC(=O)C1=C(C)NC(C)=C(C(=O)OC)C1c1ccccc1[N+](=O)[O-]` [Nifedipine], the side effects entry in series [2] is “many side effects”. `COc1ccc(CCN(C)CCCC(C#N)(c2ccc(OC)c(OC)c2)C(C)C)cc1OC` (centres unmarked) [verapamil]: the “irregularity percentage (cardiac arrhythmia)” value in series [3] was found to be 71.4%.

Regarding `O=[N+]([O-])O[C@H]1CO[C@H]2[C@@H]1OC[C@H]2O[N+](=O)[O-]` [Isordil], in the series with vegetative nerve balance, the “SDNN in R-R” value is “no significant difference” and the “percentage of y>+0.56 (vegetative nerve balance factor)” value is recorded as “not significant”.
